Reference: US4886667A, “External preparation composition” (priority 1985, dated 1989)
In brackets after ≈: the same amount, converted by molar mass. Read-outs that look alike come from different tables or passages of the source.

How the values were obtained:
[1] = tested on: Trichophyton mentagrophytes IFO 5810; experiment: Antifungal activity in vivo by trichophytosis of guinea pig; details: 1% solution; for Fungal negativity index / Healing index: 0.1 ml once a day for 8 days, guinea pig trichophytosis
[2] = tested on: Trichophyton mentagrophytes IFO 5466; experiment: Minimum inhibitory concentration (MIC), agar dilution method, standard strains; type: cell-based; details: for MIC: read-out: Minimum inhibitory concentration to standard strains
[3] = tested on: Bacteroides fragilis RIMD 023001; experiment: as above; type: cell-based; details: 37° C., 60 hrs; for MIC: RIMD023001, anaerobic; for Minimum inhibitory concentration to standard strains: anaerobic
[4] = tested on: Trichophyton rubrum IFO 5467; experiment: as above; type: cell-based; details: for MIC: read-out: Minimum inhibitory concentration to standard strains
[5] = tested on: Fusobacterium nucleatum ATCC 25586; experiment: as above; type: cell-based; details: 37° C., 60 hrs; for MIC: ATCC25586, anaerobic
[6] = tested on: Staphylococcus epidermidis ATCC 12228; experiment: as above; details: for MIC: Staphylococcus epidermidis, ATCC12228, 48 h, read-out: Minimum inhibitory concentration to standard strains; for Minimum inhibitory concentration to standard strains: Staphylococcus epidermidis ATCC 12228, aerobic, 37° C., 48 hrs
[7] = tested on: Microsporum gypseum IFO 8231; experiment: as above; type: cell-based; details: for MIC: Nannizzia gypsea, read-out: Minimum inhibitory concentration to standard strains
[8] = tested on: Staphylococcus aureus ATCC 6538P; experiment: as above; details: for MIC: Staphylococcus aureus, ATCC6538P, 48 h, read-out: Minimum inhibitory concentration to standard strains; for Minimum inhibitory concentration to standard strains: Staphylococcus aureus ATCC 6538P, aerobic, 37° C., 48 hrs
[9] = tested on: Corynebacterium acnes ATCC 11828; experiment: as above; type: cell-based; details: for MIC: Cutibacterium acnes, read-out: Minimum inhibitory concentration to standard strains
[10] = tested on: Staphylococcus pyogenes ATCC 10389; experiment: as above; details: aerobic, 37° C., 48 hrs
[11] = tested on: Candida albicans ATCC 10261; experiment: as above; details: for Minimum inhibitory concentration to standard strains: yeast, Sabouraud medium; for MIC: ATCC10261, read-out: Minimum inhibitory concentration to standard strains
[12] = tested on: Bacteroides fragilis (48 isolated strains); experiment: MIC against clinically isolated strains (cumulation percent); type: cell-based; details: for MIC: 60 h, read-out: range of effective concentration
[13] = tested on: Clostridium perfringens (9 isolated strains); type: cell-based; details: 9 isolated strains of clostridium perfringens
[14] = Acute toxicity in mice; details: for LD50 / Mortalities (Dead/Treated): male mice; for LD50: 23040 min; for Mortalities (Dead/Treated): 16 days
[15] = tested on: clinically isolated anaerobic bacteria; type: cell-based; details: 70 isolated strains of the tested bacteria
[16] = IFO5466, Trichophyton mentagrophytes IFO 5466, aerobic, 168 hrs
[17] = IFO5467, Trichophyton rubrum IFO 5467, aerobic, 168 hrs
[18] = IFO8231, Microsporum gypseum IFO 8231, aerobic, 168 hrs
[19] = ATCC11828, Corynebacterium acnes ATCC 11828, anaerobic, 37° C., 60 hrs
[20] = 48 isolated strains of Bacteroides fragilis, 100% efficiency stated for Ratanhiaphenol

Compound `Clc1ccccc1C(c1ccccc1)(c1ccccc1)n1ccnc1` [Clotrimazole] has a Fungal negativity index [1] of 88% and a Healing index [1] of 60%.
With `CC1(C)S[C@@H]2[C@H](NC(=O)[C@H](C(=O)O)c3ccsc3)C(=O)N2[C@H]1C(=O)O` [L, Ticarcillin] the MIC [2, 16] was greater than 1000 µg/mL, the MIC [3] was 50 µg/mL (≈ 130 µM) and the MIC [4, 17] was greater than 1000 µg/mL. The MIC [5] was 6.25 µg/mL (≈ 16.3 µM), the MIC [6] was 6.25 µg/mL (≈ 16.3 µM) and the MIC [7, 18] was greater than 1000 µg/mL. The MIC [8] was 3.13 µg/mL (≈ 8.14 µM) and the MIC [9, 19] was 50 µg/mL (≈ 130 µM).
In the case of `CC1(C)S[C@@H]2[C@H](NC(=O)[C@H](NC(=O)c3cnc4cccnc4c3O)c3ccccc3)C(=O)N2[C@H]1C(=O)O` [M, Apalcillin], the MIC [2, 16] is reported as greater than 1000 µg/mL, the MIC [3] is reported as 50 µg/mL (≈ 95.9 µM) and the MIC [4, 17] is reported as greater than 1000 µg/mL. For the same compound, the MIC [5] was 12.5 µg/mL (≈ 24 µM), the MIC [6] was 25 µg/mL (≈ 47.9 µM) and the MIC [7, 18] was greater than 1000 µg/mL. For the same compound, the MIC [8] was 50 µg/mL (≈ 95.9 µM) and the MIC [9, 19] was 25 µg/mL (≈ 47.9 µM).
For `Cc1cc(O)ccc1C(C)C` [N, Isopropylmethylphenol], the “Minimum inhibitory concentration to standard strains” value (“Minimum inhibitory concentration” for short) [10] was 100 µg/mL (≈ 666 µM), the “Minimum inhibitory concentration” value [3] was 400 µg/mL (≈ 2660 µM) and the “Minimum inhibitory concentration” value [6] was 200 µg/mL (≈ 1330 µM). The “Minimum inhibitory concentration” value [8] was 400 µg/mL (≈ 2660 µM) and the “Minimum inhibitory concentration” value [11] was 200 µg/mL (≈ 1330 µM).
`COC1=CC(=O)C[C@@H](C)[C@]12Oc1c(Cl)c(OC)cc(OC)c1C2=O` [O, Griseofulvin] gave an MIC [2, 16] of 6.25 µg/mL (≈ 17.7 µM), an MIC [3] of 200 µg/mL (≈ 567 µM) and an MIC [4, 17] of 6.25 µg/mL (≈ 17.7 µM). The MIC [6] was greater than 1000 µg/mL, the MIC [7, 18] was 6.25 µg/mL (≈ 17.7 µM) and the MIC [8] was greater than 1000 µg/mL. It also gave an MIC [11] greater than 1000 µg/mL.
`Cc1cccc(N(C)C(=S)Oc2ccc3ccccc3c2)c1` [P, Tolnaftate] showed an MIC [2, 16] of 0.1 µg/mL (≈ 0.325 µM), an MIC [4, 17] of 0.1 µg/mL (≈ 0.325 µM) and an MIC [5] of 200 µg/mL (≈ 651 µM). The MIC [6] was greater than 1000 µg/mL, the MIC [7, 18] was 0.1 µg/mL (≈ 0.325 µM) and the MIC [8] was greater than 1000 µg/mL. For the same compound, the MIC [11] was greater than 1000 µg/mL.
In the case of `C=CCCCCCCCCC(=O)O` [Q, Undecylenic acid], the MIC ([2]; Trichophyton mentagrophytes, IFO5466, 168 h) is reported as 12.5 µg/mL (≈ 67.8 µM), the MIC ([4]; Trichophyton rubrum, IFO5467, 168 h) is reported as 12.5 µg/mL (≈ 67.8 µM) and the MIC [6] is reported as greater than 1000 µg/mL. The MIC ([7]; IFO8231, 168 h) was 6.25 µg/mL (≈ 33.9 µM), the MIC [8] was greater than 1000 µg/mL and the MIC [11] was 200 µg/mL (≈ 1090 µM). The MIC ([9]; ATCC11828, 60 h) was 400 µg/mL (≈ 2170 µM).
With `CN(C)[C@@H]1C(=O)C(C(N)=O)=C(O)[C@@]2(O)C(=O)C3=C(O)c4c(O)cccc4[C@@](C)(O)[C@H]3C[C@@H]12` [R, Tetracycline] the MIC ([12]; Bacteroides fragilis) was 1.56 to 400 µg/mL (≈ 3.51 to 900 µM).
`CC1=C(C(=O)O)N2C(=O)[C@@H](NC(=O)[C@H](N)c3ccccc3)[C@H]2SC1` [S, Cefalexin] showed an MIC [12, 20] of 3.13 to 400 µg/mL (≈ 9.01 to 1150 µM).
Work on `C[CH2][Hg][S]c1ccccc1C(=O)[O-].[Na+]` [Thimerosal] yielded a Fungal negativity index [1] of 100% and a Healing index [1] of 100%.
In the case of Ratanhiaphenol [F], the “healing effect compared with 1% clotrimazole solution” value [1] is reported as “equivalent to that of 1% clotrimazole solution”, the Fungal negativity index [1] is reported as 81% and the Healing index [1] is reported as 67%. For the same compound, the “Minimum inhibitory concentration” value [10] was 0.10 µg/mL, the “Minimum inhibitory concentration” value ([2]; Trichophyton mentagrophytes IFO 5466, aerobic, 168 hrs) was 1.56 µg/mL and the “Minimum inhibitory concentration” value [3] was 6.25 µg/mL. For the same compound, the “range of effective concentration (100% efficiency)” value [13] was 3.13 to 12.5 µg/mL, the “range of effective concentration” value [12, 20] was 1.56 to 6.25 µg/mL and the “Minimum inhibitory concentration” value ([4]; Trichophyton rubrum IFO 5467, aerobic, 168 hrs) was 1.56 µg/mL. For the same compound, the LD50 ([14]; oral administration) was 5000 mg/kg, the toxicity ([14]; oral or subcutaneous single dose, mice) was “low” and the abnormal sign ([14]; oral or subcutaneous single dose, mice, 16 days observation) was “no abnormal sign was observed”. The “Mortalities (Dead/Treated)” value ([14]; oral, 1 g/kg) was 0/5, the “Mortalities (Dead/Treated)” value ([14]; oral, 5 g/kg) was 2/5 and the LD50 ([14]; subcutaneous administration) was greater than 5000 mg/kg. The “Mortalities (Dead/Treated)” value ([14]; subcutaneous, 1 g/kg) was 0/5, the “Mortalities (Dead/Treated)” value ([14]; subcutaneous, 5 g/kg) was 0/5 and the “range of effective concentration (100% efficiency)” value [15] was 1.56 to 12.5 µg/mL. For the same compound, the “Minimum inhibitory concentration” value ([5]; anaerobic) was 6.25 µg/mL, the “Minimum inhibitory concentration” value [6] was 0.39 µg/mL and the “Minimum inhibitory concentration” value ([7]; Microsporum gypseum IFO 8231, aerobic, 168 hrs) was 0.78 µg/mL. The “Minimum inhibitory concentration” value [8] was 0.39 µg/mL, the “Minimum inhibitory concentration” value [11] was greater than 10 µg/mL and the “Minimum inhibitory concentration” value ([9]; Corynebacterium acnes ATCC 11828, anaerobic, 37° C., 60 hrs) was 6.25 µg/mL.
